Measured values published in patent US20250388574A1, “HETEROCYCLIC COMPOUNDS AS TRIGGERING RECEPTOR EXPRESSED ON MYELOID CELLS 2 AGONISTS AND METHODS OF USE” (AMGEN INC., priority 2020, published 2025).

Biological target: hTREM2 (Homo sapiens, UniProt Q9NZC2)
Assay: Phospho-Syk AlphaScreen/AlphaLISA assay in TREM2 and DAP12 overexpressing HEK293 cells (Example A1)
Format: cell-based
Set-up: expressed in transfected cells
Settings: HEK293 cells; for EC50: read-out: hTREM2 EC50
Outline: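 Single-cell-cloned HEK293 stably overexpressing TREM2 and DAP12, plated 20,000 cells/well for 20 h, then exposed to compounds (1% DMSO) 45 min at room temperature. Lysates probed for phospho-Syk by AlphaLISA sandwich (anti-pSyk, biotinylated anti-Syk); signal normalized to percent of control (100 nM anti-TREM2 antibody vs isotype) and fitted by 4-parameter logistic.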

hTREM2, sequence (Q9NZC2 19-230): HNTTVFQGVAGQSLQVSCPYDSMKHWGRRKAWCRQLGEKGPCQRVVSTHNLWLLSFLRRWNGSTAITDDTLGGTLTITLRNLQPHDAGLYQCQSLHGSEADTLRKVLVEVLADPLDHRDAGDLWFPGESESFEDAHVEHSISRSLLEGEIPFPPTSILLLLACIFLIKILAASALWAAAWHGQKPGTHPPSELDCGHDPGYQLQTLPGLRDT
hTREM2, sequence (O43914 22-113 partner): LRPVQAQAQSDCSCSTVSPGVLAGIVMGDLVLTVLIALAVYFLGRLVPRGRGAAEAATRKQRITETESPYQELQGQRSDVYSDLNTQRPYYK

Emax | EC50 [µM] | SMILES
++++ (Emax>300) | 0.05 to 0.5 | Cc1nc2cc(N3CCC[C@@H](c4cnn(C)c4)C3)nc(-c3ccc(Cl)cc3F)c2c(=O)n1C (single isomer, unassigned) [Example 99]
++++ (Emax>300) | 0.05 to 0.5 | Cc1nc2cc(N3CCC[C@H](c4ccncc4)C3)nc(-c3ccc(Cl)cc3F)c2c(=O)n1C [Example 233, (R)-5-(4-chloro-2-fluorophenyl)-2,3-dimethyl-7-(3-(pyridin-4-yl)piperidin-1-yl)pyrido[4,3-d]pyrimidin-4(3H)-one]
++ (Emax>100 and ≤200) | < 0.05 | Cc1nc2cc([C@@H]3CCO[C@H](c4cnn(C)c4)C3)nc(-c3ccc(Cl)cc3F)c2c(=O)n1C [Example 275, 5-(4-chloro-2-fluorophenyl)-2,3-dimethyl-7-((2S,4R)-2-(1-methyl-1H-pyrazol-4-yl)tetrahydro-2H-pyran-4-yl)pyrido[4,3-d]pyrimidin-4(3H)-one]
 | 0.05 to 0.5 | Cc1ccc(-c2nc(N3CCO[C@@H](c4cnn(C)c4)C3)cc3nc(C)n(C)c(=O)c23)c(F)c1 [Example 12, 5-(2-fluoro-4-methylphenyl)-2,3-dimethyl-7-((2S)-2-(1-methyl-1H-pyrazol-4-yl)-4-morpholinyl)pyrido[4,3-d]pyrimidin-4(3H)-one]
++ (Emax>100 and ≤200) | 3 to 100 | Cc1nc2cc(N3CC[C@H](c4ccccc4)C3)nc(-c3ccc(Cl)cc3F)c2c(=O)n1C [Example 206, (R)-5-(4-chloro-2-fluorophenyl)-2,3-dimethyl-7-(3-phenylpyrrolidin-1-yl)pyrido[4,3-d]pyrimidin-4(3H)-one]
++++ (Emax>300) | 0.5 to 3 | Cc1nc2cc(N3CCO[C@@H](c4ccc(Cl)cc4)C3)nc(-c3ccc(Cl)cc3F)c2c(=O)n1C (single isomer, unassigned) [Example 87]
+++ (Emax>200 and ≤300) | 3 to 100 | Cc1nc2cc(N3C[C@@H](C)O[C@H](C4CC4)C3)nc(-c3ccc(Cl)cc3F)c2c(=O)n1C (single isomer, unassigned) [Example 36]
++++ (Emax>300) | < 0.05 | C=Cn1cc([C@H]2CN(c3cc4nc(C)n(C)c(=O)c4c(-c4ccc(Cl)cc4F)n3)CCO2)cn1 [Example 137, 5-(4-chloro-2-fluorophenyl)-7-((2S)-2-(1-ethenyl-1H-pyrazol-4-yl)-4-morpholinyl)-2,3-dimethylpyrido[4,3-d]pyrimidin-4(3H)-one]
++++ (Emax>300) | 0.05 to 0.5 | Cc1nc2cc(N3C[C@@H](C)O[C@H](c4cnn(C)c4)C3)nc(-c3ccc(Cl)cc3F)c2c(=O)n1C (single isomer, unassigned) [Example 27]
++++ (Emax>300) | 0.5 to 3 | Cc1noc([C@H]2CCCN(c3cc4nc(C)n(C)c(=O)c4c(-c4ccc(Cl)cc4F)n3)C2)n1 [Example 230, (S)-5-(4-chloro-2-fluorophenyl)-2,3-dimethyl-7-(3-(3-methyl-1,2,4-oxadiazol-5-yl)piperidin-1-yl)pyrido[4,3-d]pyrimidin-4(3H)-one]
++++ (Emax>300) | 0.05 to 0.5 | Cc1nc2cc(N3CCO[C@@H](c4cnn(C(F)(F)F)c4)C3)nc(-c3ccc(Cl)cc3F)c2c(=O)n1C [Example 141, 5-(4-chloro-2-fluorophenyl)-2,3-dimethyl-7-((2S)-2-(1-(trifluoromethyl)-1H-pyrazol-4-yl)-4-morpholinyl)pyrido[4,3-d]pyrimidin-4(3H)-one]
++++ (Emax>300) | 0.05 to 0.5 | Cc1noc([C@@H]2CCCN(c3cc4nc(C)n(C)c(=O)c4c(-c4ccc(Cl)cc4F)n3)C2)n1 (single isomer, unassigned) [Example 111]
+++ (Emax>200 and ≤300) | < 0.05 | CCn1c(C)nc2cc(N3CCO[C@@H](c4cnn(C5CC5)c4)C3)nc(-c3ccc(F)cc3F)c2c1=O [Example 151, 7-((2S)-2-(1-cyclopropyl-1H-pyrazol-4-yl)-4-morpholinyl)-5-(2,4-difluorophenyl)-3-ethyl-2-methylpyrido[4,3-d]pyrimidin-4(3H)-one]
+++ (Emax>200 and ≤300) | 0.5 to 3 | Cc1nc2cc(N3C[C@H](c4cnn(C)c4)OC[C@H]3C)nc(-c3ccc(Cl)cc3F)c2c(=O)n1C (single isomer, unassigned) [Example 25]
++++ (Emax>300) | 0.05 to 0.5 | Cc1ncc([C@@H]2CN(c3cc4nc(C)n(C)c(=O)c4c(-c4ccc(Cl)cc4F)n3)CCO2)cn1 (single isomer, unassigned) [Example 64]
+++ (Emax>200 and ≤300) | < 0.05 | Cc1nc2cc(N3CCO[C@@H](c4cnn(CC(F)(F)F)c4)C3)nc(-c3ccc(Cl)cc3F)c2c(=O)n1C [Example 126, 5-(4-chloro-2-fluorophenyl)-2,3-dimethyl-7-((2S)-2-(1-(2,2,2-trifluoroethyl)-1H-pyrazol-4-yl)-4-morpholinyl)pyrido[4,3-d]pyrimidin-4(3H)-one]

Emax | EC50 [µM] | SMILES
++++ (Emax>300) | 0.5 to 3 | CCCn1c(C)nc2cc(N3CCO[C@H](C(F)(F)F)C3)nc(-c3ccc(Cl)cc3F)c2c1=O [Example 180, (S)-5-(4-chloro-2-fluorophenyl)-2-methyl-3-propyl-7-(2-(trifluoromethyl)morpholino)pyrido[4,3-d]pyrimidin-4(3H)-one]
++++ (Emax>300) | 0.5 to 3 | Cc1nc2cc(N3CCO[C@@H](c4ccnc(OCC(F)(F)F)c4)C3)nc(-c3ccc(Cl)cc3F)c2c(=O)n1C (single isomer, unassigned) [Example 96]
++++ (Emax>300) | 0.05 to 0.5 | Cc1nc2cc(N3C[C@@H](C4CC4)O[C@@H](C)C3)nc(-c3ccc(Cl)cc3F)c2c(=O)n1C (single isomer, unassigned) [Example 37]
++++ (Emax>300) | 0.5 to 3 | CCCn1c(C)nc2cc(N3CCO[C@@H](c4ccccc4)C3)nc(-c3ccc(Cl)cc3F)c2c1=O [Example 157, 5-(4-chloro-2-fluorophenyl)-2-methyl-7-((2S)-2-phenyl-4-morpholinyl)-3-propylpyrido[4,3-d]pyrimidin-4(3H)-one]
+ (Emax>45 and ≤100) | 3 to 100 | CCCn1c(C)nc2cc(N3CCO[C@H](c4cnn(C)c4)C3)nc(-c3ncc(Cl)cc3C)c2c1=O [Example 195, (R)-5-(5-chloro-3-methylpyridin-2-yl)-2-methyl-7-(2-(1-methyl-1H-pyrazol-4-yl)morpholino)-3-propylpyrido[4,3-d]pyrimidin-4(3H)-one]
+ (Emax>45 and ≤100) | 3 to 100 | Cc1nc2cc(N3CC[C@H](n4cccn4)C3)nc(-c3ccc(Cl)cc3F)c2c(=O)n1C [Example 203, (S)-7-(3-(1H-pyrazol-1-yl)pyrrolidin-1-yl)-5-(4-chloro-2-fluorophenyl)-2,3-dimethylpyrido[4,3-d]pyrimidin-4(3H)-one]
+ (Emax>45 and ≤100) | 3 to 100 | Cc1nc2cc(N3CCCC(C)(c4ccccc4)C3)nc(-c3ccc(Cl)cc3F)c2c(=O)n1C (stereo not shown) [Example 103, 5-(4-chloro-2-fluorophenyl)-2,3-dimethyl-7-(3-methyl-3-phenyl-1-piperidinyl)pyrido[4,3-d]pyrimidin-4(3H)-one]
+++ (Emax>200 and ≤300) | 0.5 to 3 | Cc1nnc([C@@H]2CN(c3cc4nc(C)n(C)c(=O)c4c(-c4ccc(Cl)cc4F)n3)CCO2)o1 (single isomer, unassigned) [Example 58]
+++ (Emax>200 and ≤300) | 0.05 to 0.5 | Cc1nc2cc(N3CCC(F)(F)[C@@H](c4cnn(C)c4)C3)nc(-c3ccc(Cl)cc3F)c2c(=O)n1C (single isomer, unassigned) [Example 118]
++++ (Emax>300) | 0.5 to 3 | Cc1nc2cc(N3CCOC(C4CCC4)C3)nc(-c3ccc(Cl)cc3F)c2c(=O)n1C (stereo not shown) [Example 33, 5-(4-chloro-2-fluorophenyl)-7-(2-cyclobutyl-4-morpholinyl)-2,3-dimethylpyrido[4,3-d]pyrimidin-4(3H)-one]
+++ (Emax>200 and ≤300) | 0.5 to 3 | Cc1nc2cc(N3CCO[C@H](c4ccncc4)C3)nc(-c3ccc(Cl)cc3F)c2c(=O)n1C (single isomer, unassigned) [Example 48]
++ (Emax>100 and ≤200) | 3 to 100 | Cc1nc2cc(N3CC[C@H](C4CC4)C3)nc(-c3ccc(Cl)cc3F)c2c(=O)n1C [Example 207, (R)-5-(4-chloro-2-fluorophenyl)-7-(3-cyclopropylpyrrolidin-1-yl)-2,3-dimethylpyrido[4,3-d]pyrimidin-4(3H)-one]
++++ (Emax>300) | 0.05 to 0.5 | Cc1nc2cc(N3CCOC(c4cncc(F)c4)C3)nc(-c3ccc(Cl)cc3F)c2c(=O)n1C (stereo not shown) [Example 69, 5-(4-chloro-2-fluorophenyl)-7-(2-(5-fluoro-3-pyridinyl)-4-morpholinyl)-2,3-dimethylpyrido[4,3-d]pyrimidin-4(3H)-one]
++++ (Emax>300) | < 0.05 | CCn1c(C)nc2cc(N3CCO[C@@H](c4cnn(C)c4)C3)nc(-c3ccc(Cl)cc3F)c2c1=O [Example 146, 5-(4-chloro-2-fluorophenyl)-3-ethyl-2-methyl-7-((2S)-2-(1-methyl-1H-pyrazol-4-yl)-4-morpholinyl)pyrido[4,3-d]pyrimidin-4(3H)-one]
+++ (Emax>200 and ≤300) | 0.5 to 3 | Cc1cnn([C@H]2CCCN(c3cc4nc(C)n(C)c(=O)c4c(-c4ccc(Cl)cc4F)n3)C2)c1 [Example 231, (S)-5-(4-chloro-2-fluorophenyl)-2,3-dimethyl-7-(3-(4-methyl-1H-pyrazol-1-yl)piperidin-1-yl)pyrido[4,3-d]pyrimidin-4(3H)-one]
